Measured values reported in ChEMBL document CHEMBL4602688, “Bromopyrrole Alkaloids of the Sponge Agelas oroides Collected Near the Israeli Mediterranean Coastline” (J Nat Prod, 2020).

Tests used:
Type in all cases: functional, organism-based
Pseudomonas aeruginosa = test: Antibiofilm activity against Pseudomonas aeruginosa PAO1 assessed as inhibition of biofilm formation incubated for 24 hrs by crystal violet staining based assay; settings: PAO1, 24 h
Pseudomonas sp. [1] = test: Growth inhibition of Pseudomonas sp. isolate ISP2_Ab after 24 hrs
Bacillus sp. = test: Growth inhibition of Bacillus sp. isolate ISP2_A_B after 24 hrs; settings: Bacillus sp. (in: firmicutes)
Pseudomonas sp. NB86 [2] = test: Antibiofilm activity against Pseudomonas sp. NB86 assessed as inhibition of biofilm formation incubated for 24 hrs by crystal violet staining based assay; settings: Pseudomonas sp. NB86, 24 h
Lysinibacillus [3] = test: Growth inhibition of Lysinibacillus isolate Eys09 after 24 hrs; settings: isolate Eys09, 24 h
Pseudomonas sp. [4] = test: Antibiofilm activity against Pseudomonas sp. isolate ISP2_A10pp assessed as inhibition of biofilm formation incubated for 24 hrs by crystal violet staining based assay
Pseudomonas sp. [5] = test: Antibiofilm activity against Pseudomonas sp. isolate ISP2_16 assessed as inhibition of biofilm formation incubated for 24 hrs by crystal violet staining based assay; settings: isolate ISP2_16, 24 h
Pseudomonas sp. [6] = test: Growth inhibition of Pseudomonas sp. isolate ISP2_A10pp after 24 hrs
Sporosarcina sp. NB90 = test: Growth inhibition of Sporosarcina sp. NB90 after 24 hrs; settings: Sporosarcina sp. NB90, 24 h
Kocuria [7] = test: Growth inhibition of Kocuria isolate Eys10 after 24 hrs; settings: isolate Eys10, 24 h
Pseudomonas sp. [8] = test: Growth inhibition of Pseudomonas sp. isolate ISP2_16 after 24 hrs; settings: isolate ISP2_16, 24 h
Pseudomonas sp. NB86 [9] = test: Growth inhibition of Pseudomonas sp. NB86 after 24 hrs; settings: Pseudomonas sp. NB86, 24 h
Kocuria [10] = test: Antibiofilm activity against Kocuria isolate Eys10 assessed as inhibition of biofilm formation incubated for 24 hrs by crystal violet staining based assay; settings: isolate Eys10, 24 h
Pseudomonas sp. [11] = test: Antibiofilm activity against Pseudomonas sp. isolate ISP2_Ab assessed as inhibition of biofilm formation incubated for 24 hrs by crystal violet staining based assay
Lysinibacillus [12] = test: Antibiofilm activity against Lysinibacillus isolate Eys09 assessed as inhibition of biofilm formation incubated for 24 hrs by crystal violet staining based assay; settings: isolate Eys09, 24 h

IC50 (Pseudomonas aeruginosa) | IC50 (Pseudomonas sp. NB86 [2]) | IC50 (Pseudomonas sp. [4]) | IC50 (Pseudomonas sp. [5]) | IC50 (Kocuria [10]) | IC50 (Pseudomonas sp. [11]) | IC50 (Lysinibacillus [12]) | Compound | IC50 (Pseudomonas sp. [1]) | IC50 (Bacillus sp.) | IC50 (Lysinibacillus [3]) | IC50 (Pseudomonas sp. [6]) | IC50 (Sporosarcina sp. NB90) | IC50 (Kocuria [7]) | IC50 (Pseudomonas sp. [8]) | IC50 (Pseudomonas sp. NB86 [9])
15 µM | – | – | – | – | – | – | NC(=O)c1cc(Br)c(Br)[nH]1 | – | – | – | – | – | – | – | –
10 µM | – | – | – | – | – | – | Nc1nc2c([nH]1)c1c(c3[nH]c(N)nc32)[C@H](CNC(=O)c2cc(Br)c(Br)[nH]2)[C@H]1CNC(=O)c1cc(Br)c(Br)[nH]1 [BENZOSCEPTRIN C] | – | – | – | – | – | – | – | –
5.1 µM | 57 µM | 10 µM | 39 µM | 10 µM | 3.9 µM | 7.7 µM | Nc1ncc(/C=C/CNC(=O)c2cc(Br)c(Br)[nH]2)[nH]1 [OROIDIN] | 310 µM | 39 µM | 77 µM | 150 µM | 31 µM | 51 µM | 170 µM | 330 µM
